Target: Factor D (Homo sapiens (Human), UniProt P00746)
Test: biochemical
Type: biochemical
Conditions: read-out: IC50

Sequence of Factor D (P00746 26-253): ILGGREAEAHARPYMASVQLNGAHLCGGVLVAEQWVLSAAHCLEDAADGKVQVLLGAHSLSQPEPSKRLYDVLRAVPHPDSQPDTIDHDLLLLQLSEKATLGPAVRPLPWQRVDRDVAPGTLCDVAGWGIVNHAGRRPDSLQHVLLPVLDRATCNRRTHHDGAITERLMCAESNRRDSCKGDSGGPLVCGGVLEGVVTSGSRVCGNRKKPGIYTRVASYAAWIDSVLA

SMILES | IC50
CCc1cccc(NC(=O)[C@@H]2CC3CC3N2C(=O)Nc2cn(C(N)=O)c3ccccc23)n1 (stereo partly drawn) [Example 158, (1R,3S,5R)-2-Aza-bicyclo[3.1.0]hexane-2,3-dicarboxylic acid 2-[(1-carbamoyl-1H-indol-3-yl)-amide] 3-[(6-ethyl-pyridin-2-yl)-amide]] | 80 nM
NC(=O)n1cc(NC(=O)N2C[C@H](F)C[C@H]2C(=O)NCc2cccc(Cl)c2F)c2ccc(O)cc21 [Example 393, 2S,4R)-4-Fluoro-pyrrolidine-1,2-dicarboxylic acid 1-[(1-carbamoyl-6-hydroxy-1H-indol-3-yl)-amide]2-(3-chloro-2-fluoro-benzylamide] | 7 nM
NC(=O)n1cc(NC(=O)N2C[C@@H](N)[C@H](F)[C@H]2C(=O)NCc2cccc(Cl)c2F)c2ccccc21 [Example 430, 2R,3S,4R)-4-Amino-3-fluoro-pyrrolidine-1,2-dicarboxylic acid 1-[(1-carbamoyl-1H-indol-3-yl)-amide]2-(3-chloro-2-fluoro-benzylamide] | 58 nM
NC(=O)n1cc(NC(=O)N2C3CC3C[C@H]2C(=O)NCc2cccc(Cl)c2F)c2ccccc21 (stereo partly drawn) [Example 166, (1R,3S,5R)-2-Aza-bicyclo[3.1.0]hexane-2,3-dicarboxylic acid 2-[(1-carbamoyl-1H-indol-3-yl)-amide] 3-(3-chloro-2-fluoro-benzylamide)] | 3 nM
COCCOc1ccc2c(C(N)=O)cn(CC(=O)N3C[C@H](F)C[C@H]3C(=O)NCc3cccc(Cl)c3F)c2c1 [Example 591, 1-{2-[(2S,4R)-2-(3-Chloro-2-fluoro-benzylcarbamoyl)-4-fluoro-pyrrolidin-1-yl]-2-oxo-ethyl}-6-(2-methoxy-ethoxy)-1H-indole-3-carboxylic acid amide] | 109 nM
NC(=O)c1cn(CC(=O)N2C[C@H](F)C[C@H]2C(=O)NCc2cccc(Br)c2F)c2ccccc12 [Example 481, 1-{2-[(2S,4R)-2-(3-Bromo-2-fluoro-benzylcarbamoyl)-4-fluoro-pyrrolidin-1-yl]-2-oxo-ethyl}-1H-indole-3-carboxylic acid amide] | 22 nM
NC(=O)n1cc(NC(=O)N2CCS[C@H]2C(=O)NCc2cccc(Cl)c2F)c2cc(OCCO)ccc21 [Example 380, S)-Thiazolidine-2,3-dicarboxylic acid 3-{[1-carbamoyl-5-(2-hydroxy-ethoxy)-1H-indol-3-yl]-amide}2-(3-chloro-2-fluoro-benzylamide] | 17 nM
CCc1cc2c(C(N)=O)nn(CC(=O)N3C[C@H](F)[C@@H](OC)[C@H]3C(=O)NCc3cccc(Cl)c3F)c2cn1 [Example 697, 1-{2-[(2S,3S,4S)-2-(3-Chloro-2-fluoro-benzylcarbamoyl)-4-fluoro-3-methoxy-pyrrolidin-1-yl]-2-oxo-ethyl}-5-ethyl-1H-pyrazolo[3,4-c]pyridine-3-carboxylic acid amide] | 3 nM
C[C@@]1(C(=O)Nc2cccc(OC(F)(F)F)c2)CCCN1C(=O)Nc1cn(C(N)=O)c2ccccc12 [Example 192, (S)-2-Methyl-pyrrolidine-1,2-dicarboxylic acid 1-[(1-carbamoyl-1H-indol-3-yl)-amide] 2-[(3-trifluoromethoxy-phenyl)-amide]] | 17800 nM
NC(=O)n1cc(NC(=O)N2C[C@@H](N)C[C@H]2C(=O)NCc2ccc(F)c(Cl)c2)c2ccccc21 [Example 56, (2S,4S)-4-Amino-pyrrolidine-1,2-dicarboxylic acid 1-[(1-carbamoyl-1H-indol-3-yl)-amide] 2-(3-chloro-4-fluoro-benzylamide)] | 1950 nM
Cc1nccc2c(C(N)=O)nn(CC(=O)N3[C@@H]4C[C@@H]4C[C@H]3C(=O)N[C@H](C)c3cccc(Cl)c3F)c12 [Example 693, 1-(2-{(1R,3S,5R)-3-[(R)-1-(3-Chloro-2-fluoro-phenyl)-ethylcarbamoyl]-2-aza-bicyclo[3.1.0]hex-2-yl}-2-oxo-ethyl)-7-methyl-1H-pyrazolo[3,4-c]pyridine-3-carboxylic acid amide] | 6 nM
NC(=O)c1cn(CC(=O)N2C[C@H](F)C[C@H]2C(=O)NCc2cccc(Cl)c2F)c2cc(OCCO)ccc12 [Example 594, 1-{2-[(2S,4R)-2-(3-Chloro-2-fluoro-benzylcarbamoyl)-4-fluoro-pyrrolidin-1-yl]-2-oxo-ethyl}-6-(2-hydroxy-ethoxy)-1H-indole-3-carboxylic acid amide] | 85 nM
Cc1c(Cl)cccc1CNC(=O)[C@@H]1C[C@H](N)CN1C(=O)Nc1cn(C(N)=O)c2ccccc12 [Example 57, (2S,4S)-4-Amino-pyrrolidine-1,2-dicarboxylic acid 1-[(1-carbamoyl-1H-indol-3-yl)-amide] 2-(3-chloro-2-methyl-benzylamide)] | 1350 nM
CC(=O)c1cn(CC(=O)N2C[C@H](F)C[C@H]2C(=O)NCc2cccc(Cl)c2F)c2cc(CC(=O)O)ccc12 [Example 595, (3-Acetyl-1-{2-[(2S,4R)-2-(3-chloro-2-fluoro-benzylcarbamoyl)-4-fluoro-pyrrolidin-1-yl]-2-oxo-ethyl}-1H-indol-6-yl)-acetic acid] | 41 nM
NC(=O)n1cc(NC(=O)N2C[C@@H](N)C[C@H]2C(=O)NCc2cccc(F)c2F)c2ccccc21 [Example 52, (2S,4S)-4-Amino-pyrrolidine-1,2-dicarboxylic acid 1-[(1-carbamoyl-1H-indol-3-yl)-amide] 2-(2,3-difluoro-benzylamide)] | 400 nM
N#CCOc1ccc2c(c1)c(NC(=O)N1[C@@H]3C[C@@H]3C[C@H]1C(=O)NCc1cccc(Cl)c1F)cn2C(N)=O [Example 373, 1R,3S,5R)-2-Aza-bicyclo[3.1.0]hexane-2,3-dicarboxylic acid 2-[(1-carbamoyl-5-cyanomethoxy-1H-indol-3-yl)-amide]3-(3-chloro-2-fluoro-benzylamide] | 1 nM
NC[C@H]1CC[C@@H](C(=O)Nc2cccc(OC(F)(F)F)c2)N1C(=O)Nc1cn(C(N)=O)c2ccccc12 [Example 402, (2S,5R)-5-Aminomethyl-pyrrolidine-1,2-dicarboxylic acid 1-[(1-carbamoyl-1H-indol-3-yl)-amide]2-[(3-trifluoromethoxy-phenyl)-amide]] | 300 nM
CCc1cccc(CNC(=O)[C@@H]2C[C@H](N)CN2C(=O)Nc2cn(C(N)=O)c3ccccc23)c1 [Example 100, (2S,4S)-4-Amino-pyrrolidine-1,2-dicarboxylic acid 1-[(1-carbamoyl-1H-indol-3-yl)-amide] 2-(3-ethyl-benzylamide)] | 17600 nM
CO[C@H]1[C@@H](C(=O)NCc2cccc(Cl)c2F)N(C(=O)Cn2cc(C(C)=O)c3ccncc32)C[C@@H]1F [Example 681, (2S,3S,4S)-1-[2-(3-Acetyl-pyrrolo[2,3-c]pyridin-1-yl)-acetyl]-4-fluoro-3-methoxy-pyrrolidine-2-carboxylic acid 3-chloro-2-fluoro-benzylamide] | 19 nM
NC(=O)n1cc(NC(=O)N2CC[C@H](N)[C@H]2C(=O)NCc2cccc(Cl)c2F)c2ccccc21 [Example 420, 2S,3S)-3-Amino-pyrrolidine-1,2-dicarboxylic acid 1-[(1-carbamoyl-1H-indol-3-yl)-amide]2-(3-chloro-2-fluoro-benzylamide] | 1150 nM
COc1ccc2c(C(N)=O)cn(CC(=O)N3C[C@H](F)C[C@H]3C(=O)NCc3cccc(Cl)c3F)c2c1 [Example 499, 1-{2-[(2S,4R)-2-(3-Chloro-2-fluoro-benzylcarbamoyl)-4-fluoro-pyrrolidin-1-yl]-2-oxo-ethyl}-6-methoxy-1H-indole-3-carboxylic acid amide] | 36 nM
N#C[C@H]1C[C@@H](C(=O)Nc2cccc(OC(F)(F)F)c2F)N(C(=O)Nc2cn(C(N)=O)c3ccccc23)C1 [Example 188, (2S,4S)-4-cyano-pyrrolidine-1,2-dicarboxylic acid 1-[(1-carbamoyl-1H-indol-3-yl)-amide]2-[(2-fluoro-3-trifluoromethoxy-phenyl)-amide]] | 1070 nM
NC(=O)n1cc(NC(=O)N2CCC[C@H]2C(=O)Nc2cccc(S(N)(=O)=O)c2)c2ccccc21 [Example 233, (S)-Pyrrolidine-1,2-dicarboxylic acid 1-[(1-carbamoyl-1H-indol-3-yl)-amide] 2-[(3-sulfamoyl-phenyl)-amide]] | 850 nM
C[C@H](NC(=O)[C@@H]1C[C@H](N)CN1C(=O)Nc1cn(C(N)=O)c2ccccc12)c1cccc(Cl)c1 [Example 68, (2S,4S)-4-Amino-pyrrolidine-1,2-dicarboxylic acid 1-[(1-carbamoyl-1H-indol-3-yl)-amide] 2-{[(S)-1-(3-chloro-phenyl)-ethyl]-amide}] | 15100 nM
CO[C@H]1[C@@H](C(=O)Nc2cccc(OC(F)(F)F)c2F)N(C(=O)Cn2nc(C(C)=O)c3cc(OCc4ncccn4)ccc32)C[C@@H]1F [Example 638, (2S,3S,4S)-1-{2-[3-Acetyl-5-(pyrimidin-2-ylmethoxy)-indazol-1-yl]-acetyl}-4-fluoro-3-methoxy-pyrrolidine-2-carboxylic acid (2-fluoro-3-trifluoromethoxy-phenyl)-amide] | 5 nM
NC(=O)n1cc(NC(=O)N2[C@@H]3C[C@@H]3C[C@H]2C(=O)NCc2cccc(Cl)c2F)c2cc(OCCn3ccnc3)ccc21 [Example 389, 1R,3S,5R)-2-Aza-bicyclo[3.1.0]hexane-2,3-dicarboxylic acid 2-{[1-carbamoyl-5-(2-imidazol-1-yl-ethoxy)-1H-indol-3-yl]-amide}3-(3-chloro-2-fluoro-benzylamide] | 30 nM
CC(=O)c1nn(CC(=O)N2[C@@H]3C[C@@H]3C[C@H]2C(=O)Nc2cncc(Br)n2)c2ccccc12 [Example 757, (1R,3S,5R)-2-[2-(3-Acetyl-indazol-1-yl)-acetyl]-2-aza-bicyclo[3.1.0]hexane-3-carboxylic acid (6-bromo-pyrazin-2-yl)-amide] | 3 nM
NC(=O)c1cn(CC(=O)N2C[C@@](F)(CO)C[C@H]2C(=O)NCc2cccc(Cl)c2F)c2ccccc12 [Example 566, 1-{2-[(2S,4R)-2-(3-Chloro-2-fluoro-benzylcarbamoyl)-4-fluoro-4-hydroxymethyl-pyrrolidin-1-yl]-2-oxo-ethyl}-1H-indole-3-carboxylic acid amide] | 436 nM
CC(=O)c1nc(CC(=O)N2[C@@H]3C[C@@H]3C[C@H]2C(=O)NCc2cccc(Cl)c2F)n2ccccc12 [Example 621, (1R,3S,5R)-2-[2-(1-Acetyl-imidazo[1,5-a]pyridin-3-yl)-acetyl]-2-aza-bicyclo[3.1.0]hexane-3-carboxylic acid 3-chloro-2-fluoro-benzylamide] | 19 nM
